Source: PubChem BioAssay AID2060611 (Molecular Pharmacology Branch, DTP, NCI, 2025)
Values belong to the compound of their own block, whether it stands above or below them.

System: 628569-122-R-J1-PDC complex spheroid viability
Assay: Anticancer human tumor 628569-122-R-J1-PDC patient-derived head and neck squamous carcinoma cell line growth inhibition [CLK]
Conditions: for IC50: curve of first compound; for viability, T/C: stronger effect = lower value
Method in brief: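 Multi-cell-type spheroids combined patient-derived tumor cells with HUVEC endothelial cells and human mesenchymal stem cells. Paired agents were dosed in half-log steps down from about clinical Cmax, or from 10 microM where Cmax was unknown.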

[1] = second compound 0.0316 µM, first compound 0.0316 µM
[2] = second compound 0.0316 µM, first compound 0.1 µM
[3] = second compound 0.0316 µM, first compound 0.316 µM
[4] = second compound 0.0316 µM, first compound 1 µM
[5] = second compound 0.0316 µM, first compound 3.16 µM
[6] = second compound 0.0316 µM, first compound 10 µM
[7] = second compound 0.1 µM, first compound 0.0316 µM
[8] = second compound 0.1 µM, first compound 0.1 µM
[9] = second compound 0.1 µM, first compound 0.316 µM
[10] = second compound 0.1 µM, first compound 1 µM
[11] = second compound 0.1 µM, first compound 3.16 µM
[12] = second compound 0.1 µM, first compound 10 µM
[13] = second compound 0.316 µM, first compound 0.0316 µM
[14] = second compound 0.316 µM, first compound 0.1 µM
[15] = second compound 0.316 µM, first compound 0.316 µM
[16] = second compound 0.316 µM, first compound 1 µM
[17] = second compound 0.316 µM, first compound 3.16 µM
[18] = second compound 0.316 µM, first compound 10 µM
[19] = second compound 1 µM, first compound 0.0316 µM
[20] = second compound 1 µM, first compound 0.1 µM
[21] = second compound 1 µM, first compound 0.316 µM
[22] = second compound 1 µM, first compound 1 µM
[23] = second compound 1 µM, first compound 3.16 µM
[24] = second compound 1 µM, first compound 10 µM
[25] = second compound 3.16 µM, first compound 0.0316 µM
[26] = second compound 3.16 µM, first compound 0.1 µM
[27] = second compound 3.16 µM, first compound 0.316 µM
[28] = second compound 3.16 µM, first compound 1 µM
[29] = second compound 3.16 µM, first compound 3.16 µM
[30] = second compound 3.16 µM, first compound 10 µM
[31] = second compound 10 µM, first compound 0.0316 µM
[32] = second compound 10 µM, first compound 0.1 µM
[33] = second compound 10 µM, first compound 0.316 µM
[34] = second compound 10 µM, first compound 1 µM
[35] = second compound 10 µM, first compound 3.16 µM
[36] = second compound 10 µM, first compound 10 µM
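Note: spheroids exposed to agents for seven days before readout.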
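Throughout, for viability, T/C: 100% = DMSO vehicle control viability.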

IC50 (second compound 0.0316 µM): > 10 µM | IC50 (second compound 0.1 µM): > 10 µM | IC50 (second compound 0.316 µM): > 10 µM | IC50 (second compound 1 µM): < 0.0316 µM | IC50 (second compound 3.16 µM): < 0.0316 µM | IC50 (second compound 10 µM): < 0.0316 µM
Structure (SMILES): CCCS(=O)(=O)Nc1ccc(F)c(C(=O)c2c[nH]c3ncc(-c4ccc(Cl)cc4)cc23)c1F + CNC(=O)c1ccc(Nc2nc(OC3CCCC3)c3c(-c4ccc5nc(C)oc5c4)c[nH]c3n2)c(OC)c1
viability, T/C [1]: 85.7% | viability, T/C [2]: 86.2% | viability, T/C [3]: 72.4% | viability, T/C [4]: 90.2% | viability, T/C [5]: 91% | viability, T/C [6]: 73.5% | viability, T/C [7]: 58% | viability, T/C [8]: 63.7% | viability, T/C [9]: 54% | viability, T/C [10]: 57.4% | viability, T/C [11]: 62% | viability, T/C [12]: 68.4% | viability, T/C [13]: 51.7% | viability, T/C [14]: 49.9% | viability, T/C [15]: 49.7% | viability, T/C [16]: 64.8% | viability, T/C [17]: 49.6% | viability, T/C [18]: 56% | viability, T/C [19]: 48% | viability, T/C [20]: 42.3% | viability, T/C [21]: 43.4% | viability, T/C [22]: 45.7% | viability, T/C [23]: 52.3% | viability, T/C [24]: 50.9% | viability, T/C [25]: 43.9% | viability, T/C [26]: 42.1% | viability, T/C [27]: 46.1% | viability, T/C [28]: 44.2% | viability, T/C [29]: 53% | viability, T/C [30]: 45.7% | viability, T/C [31]: 39.7% | viability, T/C [32]: 39.1% | viability, T/C [33]: 40.8% | viability, T/C [34]: 34.7% | viability, T/C [35]: 50.4% | viability, T/C [36]: 51.1%

IC50 (second compound 0.0316 µM): > 10 µM | IC50 (second compound 0.1 µM): > 10 µM | IC50 (second compound 0.316 µM): > 10 µM | IC50 (second compound 1 µM): > 10 µM | IC50 (second compound 3.16 µM): < 0.0316 µM | IC50 (second compound 10 µM): 0.0802 µM
Structure (SMILES): CC1(C)CCC(CN2CCN(c3ccc(C(=O)NS(=O)(=O)c4ccc(NCC5CCOCC5)c([N+](=O)[O-])c4)c(Oc4cnc5[nH]ccc5c4)c3)CC2)=C(c2ccc(Cl)cc2)C1 + CNC(=O)c1ccc(Nc2nc(OC3CCCC3)c3c(-c4ccc5nc(C)oc5c4)c[nH]c3n2)c(OC)c1
viability, T/C [1]: 124% | viability, T/C [2]: 102% | viability, T/C [3]: 96.6% | viability, T/C [4]: 94.7% | viability, T/C [5]: 111% | viability, T/C [6]: 75.4% | viability, T/C [7]: 65.9% | viability, T/C [8]: 55.9% | viability, T/C [9]: 60.4% | viability, T/C [10]: 57.5% | viability, T/C [11]: 60.4% | viability, T/C [12]: 63.4% | viability, T/C [13]: 52.7% | viability, T/C [14]: 51.8% | viability, T/C [15]: 53.6% | viability, T/C [16]: 57.9% | viability, T/C [17]: 69.7% | viability, T/C [18]: 51% | viability, T/C [19]: 48.1% | viability, T/C [20]: 51.4% | viability, T/C [21]: 53.2% | viability, T/C [22]: 59.6% | viability, T/C [23]: 49.4% | viability, T/C [24]: 53.6% | viability, T/C [25]: 46.1% | viability, T/C [26]: 48.4% | viability, T/C [27]: 53.5% | viability, T/C [28]: 51.4% | viability, T/C [29]: 45.8% | viability, T/C [30]: 41.2% | viability, T/C [31]: 59.9% | viability, T/C [32]: 48.7% | viability, T/C [33]: 41.1% | viability, T/C [34]: 43.5% | viability, T/C [35]: 47.2% | viability, T/C [36]: 38.6%

Continued, compound first:

Structure (SMILES): CC(CO)NC(=O)c1cc(-c2ccc(Cl)cc2)nn(-c2cnn(C)c2)c1=O (stereo not given) + CNC(=O)c1ccc(Nc2nc(OC3CCCC3)c3c(-c4ccc5nc(C)oc5c4)c[nH]c3n2)c(OC)c1
IC50 (second compound 0.0316 µM): > 10 µM | IC50 (second compound 0.1 µM): > 10 µM | IC50 (second compound 0.316 µM): > 10 µM | IC50 (second compound 1 µM): > 10 µM | IC50 (second compound 3.16 µM): > 10 µM | IC50 (second compound 10 µM): > 10 µM | viability, T/C [1]: 135% | viability, T/C [2]: 176% | viability, T/C [3]: 214% | viability, T/C [4]: 189% | viability, T/C [5]: 192% | viability, T/C [6]: 169% | viability, T/C [7]: 91.4% | viability, T/C [8]: 87.9% | viability, T/C [9]: 100% | viability, T/C [10]: 125% | viability, T/C [11]: 138% | viability, T/C [12]: 124% | viability, T/C [13]: 66.2% | viability, T/C [14]: 82.6% | viability, T/C [15]: 100% | viability, T/C [16]: 104% | viability, T/C [17]: 150% | viability, T/C [18]: 97.4% | viability, T/C [19]: 64.7% | viability, T/C [20]: 68.7% | viability, T/C [21]: 79.4% | viability, T/C [22]: 89.6% | viability, T/C [23]: 84.9% | viability, T/C [24]: 81.6% | viability, T/C [25]: 70.8% | viability, T/C [26]: 66.2% | viability, T/C [27]: 81% | viability, T/C [28]: 77.6% | viability, T/C [29]: 90% | viability, T/C [30]: 82.4% | viability, T/C [31]: 70% | viability, T/C [32]: 59.4% | viability, T/C [33]: 76.1% | viability, T/C [34]: 93.1% | viability, T/C [35]: 90.8% | viability, T/C [36]: 79.3%

Structure (SMILES): COC1C=CCC(C)C(C)S(=O)(=O)NC(=O)c2ccc3c(c2)N(CC2CCC21)CC1(CCCc2cc(Cl)ccc21)CO3 (stereo not given) + CN1CCN(c2cc(C(=O)Nc3cc4cc(-c5cnn(C)c5)ccc4cn3)ccn2)CC1
IC50 (second compound 0.0316 µM): 1.75 µM | IC50 (second compound 0.1 µM): 0.773 µM | IC50 (second compound 0.316 µM): < 0.0316 µM | IC50 (second compound 1 µM): < 0.0316 µM | IC50 (second compound 3.16 µM): < 0.0316 µM | IC50 (second compound 10 µM): < 0.0316 µM | viability, T/C [1]: 95.5% | viability, T/C [2]: 89.9% | viability, T/C [3]: 83.1% | viability, T/C [4]: 51.5% | viability, T/C [5]: 55% | viability, T/C [6]: 40.1% | viability, T/C [7]: 85% | viability, T/C [8]: 68.4% | viability, T/C [9]: 63.3% | viability, T/C [10]: 40.8% | viability, T/C [11]: 46.4% | viability, T/C [12]: 43.6% | viability, T/C [13]: 36.8% | viability, T/C [14]: 34% | viability, T/C [15]: 30.2% | viability, T/C [16]: 20.7% | viability, T/C [17]: 13.6% | viability, T/C [18]: 13.3% | viability, T/C [19]: 7.48% | viability, T/C [20]: 5.89% | viability, T/C [21]: 7.05% | viability, T/C [22]: 7.13% | viability, T/C [23]: 5.61% | viability, T/C [24]: 7.24% | viability, T/C [25]: 5.37% | viability, T/C [26]: 6.94% | viability, T/C [27]: 7.7% | viability, T/C [28]: 7.72% | viability, T/C [29]: 7.14% | viability, T/C [30]: 6.03% | viability, T/C [31]: 3.03% | viability, T/C [32]: 1.85% | viability, T/C [33]: 2.06% | viability, T/C [34]: 6.57% | viability, T/C [35]: 2.43% | viability, T/C [36]: 1.39%

Structure (SMILES): COc1c(OCCCN2CCOCC2)ccc2c3n(c(=NC(=O)c4cnc(N)nc4)nc12)CCN3 + CN1CCN(c2cc(C(=O)Nc3cc4cc(-c5cnn(C)c5)ccc4cn3)ccn2)CC1
IC50 (second compound 0.0316 µM): 0.0211 µM | IC50 (second compound 0.1 µM): 0.009 µM | IC50 (second compound 0.316 µM): < 0.00316 µM | IC50 (second compound 1 µM): < 0.00316 µM | IC50 (second compound 3.16 µM): < 0.00316 µM | IC50 (second compound 10 µM): < 0.00316 µM | viability, T/C (second compound 0.0316 µM, first compound 0.00316 µM): 77% | viability, T/C (second compound 0.0316 µM, first compound 0.01 µM): 67.5% | viability, T/C [1]: 34.4% | viability, T/C [2]: 34.8% | viability, T/C [3]: 18.3% | viability, T/C [4]: 7.77% | viability, T/C (second compound 0.1 µM, first compound 0.00316 µM): 54.5% | viability, T/C (second compound 0.1 µM, first compound 0.01 µM): 51.3% | viability, T/C [7]: 34.6% | viability, T/C [8]: 16.8% | viability, T/C [9]: 13.2% | viability, T/C [10]: 2.93% | viability, T/C (second compound 0.316 µM, first compound 0.00316 µM): 35.2% | viability, T/C (second compound 0.316 µM, first compound 0.01 µM): 21.1% | viability, T/C [13]: 11.8% | viability, T/C [14]: 9.4% | viability, T/C [15]: 5.28% | viability, T/C [16]: 1.37% | viability, T/C (second compound 1 µM, first compound 0.00316 µM): 9.4% | viability, T/C (second compound 1 µM, first compound 0.01 µM): 8.16% | viability, T/C [19]: 8.92% | viability, T/C [20]: 6.58% | viability, T/C [21]: 5.37% | viability, T/C [22]: 4.98% | viability, T/C (second compound 3.16 µM, first compound 0.00316 µM): 5.32% | viability, T/C (second compound 3.16 µM, first compound 0.01 µM): 5.77% | viability, T/C [25]: 8.53% | viability, T/C [26]: 6.16% | viability, T/C [27]: 7.48% | viability, T/C [28]: 4.29% | viability, T/C (second compound 10 µM, first compound 0.00316 µM): 7.43% | viability, T/C (second compound 10 µM, first compound 0.01 µM): 2.01% | viability, T/C [31]: 3.89% | viability, T/C [32]: 2.57% | viability, T/C [33]: 3.58% | viability, T/C [34]: 2.62%
